{
  "source": "patent US12667563B2",
  "about": "“Prophylactic or therapeutic agent for porphyria” (TANABE PHARMA CORPORATION, priority 2020, dated 2026)",
  "format_in_all_cases": "in vivo, human",
  "key": {"[1]": {"test_system": "patients with erythropoietic protoporphyria or X-linked porphyria", "assay": "Number of pain events recorded in electronic diary by patients during 16-week evaluation period of clinical trial", "details": "for reduction of pain events relative to the placebo administration group: 16 weeks; for Incidence rate of pain: N 24, 16-week evaluation period (placebo 7.5)", "protocol": "Compound A was administered to adult male and female patients with erythropoietic protoporphyria or X-linked porphyria for 16 weeks in a randomized double-blind clinical trial. As another endpoint for the clinical effect, the number of pain events during the evaluation period of 16 weeks was recorded in an electronic diary by the patients themselves.\nThe incidence rates of pain during the evaluation period in the placebo administration group, the 100-mg compound A-administration group, and the 300-mg compound A-administration group were 7.5, 3.3, and 3.5, respectively."}, "[2]": {"test_system": "patients with erythropoietic protoporphyria or X-linked porphyria", "assay": "Health-related QOL: PGIC (Patient Global Impression of Change) score in clinical trial", "details": "7-point scale, 7 = remarkable improvement (placebo 2.9), P value <0.001", "protocol": "Compound A was administered to adult male and female patients with erythropoietic protoporphyria or X-linked porphyria for 16 weeks in a randomized double-blind clinical trial. As a secondary endpoint for the clinical effect, the PGIC (Patient Global Impression of Change) score, which is a health-related QOL, of each patient at week 16 was recorded by the patients themselves, More specifically, each patient was provided with a questionnaire for scoring the degree of improvement of the overall physical and mental health conditions on a 7-point scale.\nThe PGIC scores at week 16 in the placebo-administration group, the 100-mg compound A-administration group, and the 300-mg compound A-administration group were 2.9, 6.4, and 6.6, respectively."}, "[3]": {"test_system": "patients with erythropoietic protoporphyria or X-linked porphyria", "assay": "Time to occurrence of phototoxicity-related symptom in randomized double-blind clinical trial", "details": "for Least squares mean of the length of time (in minutes) before the first occurrence of a symptom in a day: week 16", "protocol": "Compound A was administered to adult male and female patients with erythropoietic protoporphyria or X-linked porphyria for 16 weeks in a randomized double-blind clinical trial. As a primary endpoint for the clinical effect, the time to the first symptom due to exposure to light, including indirect sunlight as well as direct sunlight, during the period from 1 hour after sunrise to 1 hour before sunset was evaluated.\nThe baseline median of the erythrocyte protoporphyrin IX level was determined by measuring the protoporphyrin IX level in the fraction of erythrocytes in blood.\nThe median of the melanin density was determined h spectrophotometric measurement for the skin at the following six sites: the forehead, the left cheek, the inner side of the right upper arm, the inner side of the left forearm, the right side of the abdomen, and the left side of the hip.\nThe test in Example 2 was conducted in the Northern Hemisphere."}},
  "data": [
    {"smiles": "COC[C@H]1CN(C(=O)[C@]2(F)CN(C3CCCC3)C[C@H]2c2ccc(OC)cc2)C[C@@H]1c1ccc(C(F)(F)F)cc1N1CCC(C(=O)O)CC1.O=P(O)(O)O", "note": "[Compound A, cocrystal containing 1-{2-[(3S,4R)-1-{[(3R,4R)-1-cyclopentyl-3-fluoro-4-(4-methoxyphenyl)pyrrolidin-3-yl]carbonyl}-4-(methoxymethyl)pyrrolidin-3-yl]-5-(trifluoromethyl)phenyl}piperidine-4-carboxylic acid and phosphoric acid]", "values": [
      {"measurement": "reduction of pain events relative to the placebo administration group", "setting": "[1]; 100 mg orally once daily", "result": 60, "unit": "%"},
      {"measurement": "Incidence rate of pain", "setting": "[1]; 100 mg orally once daily", "result": 3.3},
      {"measurement": "Incidence rate of pain, ratio to placebo", "setting": "[1]; 100 mg orally once daily, P value 0.027", "result": 0.4},
      {"measurement": "reduction of pain events relative to the placebo administration group", "setting": "[1]; 300 mg orally once daily", "result": 50, "unit": "%"},
      {"measurement": "Incidence rate of pain", "setting": "[1]; 300 mg orally once daily", "result": 3.5},
      {"measurement": "Incidence rate of pain, ratio to placebo", "setting": "[1]; 300 mg orally once daily, P value 0.028", "result": 0.5},
      {"measurement": "Least squares mean of the PGIC scores", "setting": "[2]; 100 mg orally once daily, N 25, week 16", "result": 6.4},
      {"measurement": "Least squares mean of the PGIC scores", "setting": "[2]; 300 mg orally once daily, N 24, week 16", "result": 6.6},
      {"measurement": "Least squares mean of the length of time (in minutes) before the first occurrence of a symptom in a day", "setting": "[3]; 100 mg (N = 15) vs placebo (N = 15), subgroup with initial dosing in fall or winter, P value 0.029", "result": 52.8, "unit": "min"},
      {"measurement": "Least squares mean of the length of time (in minutes) before the first occurrence of a symptom in a day", "setting": "[3]; 100 mg (N = 18) vs placebo (N = 20), subgroup with initial dosing in spring or summer, P value 0.073", "result": 54.4, "unit": "min"},
      {"measurement": "Least squares mean of the length of time (in minutes) before the first occurrence of a symptom in a day", "setting": "[3]; 100 mg orally once daily (N = 33) vs placebo (N = 35), P value 0.008", "result": 53.8, "unit": "min"},
      {"measurement": "least squares mean of the time (in minutes) to the first occurrence of the symptom in a day", "setting": "[3]; 100 mg, patient group with baseline median erythrocyte protoporphyrin IX level not less than 1980.50 mcg/dL, P value 0.020", "result": 69.3, "unit": "min"},
      {"measurement": "least squares mean of the time (in minutes) to the first occurrence of the symptom in a day", "setting": "[3]; 100 mg, patient group with median melanin density less than 3.0915, P value 0.499", "result": 23.2, "unit": "min"},
      {"measurement": "least squares mean of the time (in minutes) to the first occurrence of the symptom in a day", "setting": "[3]; 100 mg, patient group with median melanin density not less than 3.0915, P value <0.001", "result": 85.0, "unit": "min"},
      {"measurement": "Least squares mean of the length of time (in minutes) before the first occurrence of a symptom in a day", "setting": "[3]; 300 mg (N = 16) vs placebo (N = 15), subgroup with initial dosing in fall or winter, P value <0.001", "result": 95.8, "unit": "min"},
      {"measurement": "Least squares mean of the length of time (in minutes) before the first occurrence of a symptom in a day", "setting": "[3]; 300 mg (N = 18) vs placebo (N = 20), subgroup with initial dosing in spring or summer, P value 0.168", "result": 42.2, "unit": "min"},
      {"measurement": "Least squares mean of the length of time (in minutes) before the first occurrence of a symptom in a day", "setting": "[3]; 300 mg orally once daily (N = 34) vs placebo (N = 35), P value 0.003", "result": 62.5, "unit": "min"},
      {"measurement": "least squares mean of the time (in minutes) to the first occurrence of the symptom in a day", "setting": "[3]; 300 mg, patient group with baseline median erythrocyte protoporphyrin IX level not less than 1980.50 mcg/dL, P value 0.003", "result": 82.6, "unit": "min"},
      {"measurement": "least squares mean of the time (in minutes) to the first occurrence of the symptom in a day", "setting": "[3]; 300 mg, patient group with median melanin density less than 3.0915, P value 0.051", "result": 63.7, "unit": "min"},
      {"measurement": "least squares mean of the time (in minutes) to the first occurrence of the symptom in a day", "setting": "[3]; 300 mg, patient group with median melanin density not less than 3.0915, P value 0.002", "result": 80.3, "unit": "min"},
      {"measurement": "time to the first occurrence of the symptom in a day", "setting": "[3]; patient group with baseline median erythrocyte protoporphyrin IX level less than 1980.50 mcg/dL", "result": "tended to be prolonged"}
    ]}
  ]
}
